{"source": "ChEMBL document CHEMBL1122472", "about": "“Anticoccidial activity of 1-phenyluracils” (1983)"}
{"tested_on": "Eimeria tenella", "assay": "Minimum effective concentration (MEC) against Eimeria tenella to prevent infection and to maintain zero lesion scores", "assay_type": "functional", "details": "read-out: MEC", "units": {"minimal effective concentration": "µg/mL"}}
{"smiles": "Cc1cc(C)cc(-n2ccc(=O)[nH]c2=O)c1", "minimal effective concentration": "> 250"}
{"smiles": "O=c1ccn(-c2ccc(Oc3ccc(Cl)cc3)c(Cl)c2)c(=O)[nH]1", "minimal effective concentration": "> 500"}
{"smiles": "Cc1cc(-n2ccc(=O)[nH]c2=O)cc(C)c1Sc1ccc(Cl)cc1", "minimal effective concentration": 500}
{"smiles": "O=c1ccn(-c2cc(Cl)cc(Cl)c2)c(=O)[nH]1", "minimal effective concentration": 125}
{"smiles": "Cc1cc(-n2ccc(=O)[nH]c2=O)cc(Cl)c1Sc1ccc(Cl)cc1", "minimal effective concentration": 60}
{"smiles": "Cc1cc(-n2ccc(=O)[nH]c2=O)cc(Cl)c1S(=O)(=O)c1ccc(Cl)cc1", "minimal effective concentration": "< 125"}
